{"source": "patent US8410094B2", "about": "“Amide compounds, their pharmaceutical compositions, their preparation method and their uses” (Shanghai Institute of Materia Medica, Chinese Academy of …, priority 2008, dated 2013)", "key": {"[1]": {"target": "T1, CCR5 (Homo sapiens, UniProt P51681)", "T1 construct": "expressed in transfected cells", "T1 sequence (P51681 whole entry)": "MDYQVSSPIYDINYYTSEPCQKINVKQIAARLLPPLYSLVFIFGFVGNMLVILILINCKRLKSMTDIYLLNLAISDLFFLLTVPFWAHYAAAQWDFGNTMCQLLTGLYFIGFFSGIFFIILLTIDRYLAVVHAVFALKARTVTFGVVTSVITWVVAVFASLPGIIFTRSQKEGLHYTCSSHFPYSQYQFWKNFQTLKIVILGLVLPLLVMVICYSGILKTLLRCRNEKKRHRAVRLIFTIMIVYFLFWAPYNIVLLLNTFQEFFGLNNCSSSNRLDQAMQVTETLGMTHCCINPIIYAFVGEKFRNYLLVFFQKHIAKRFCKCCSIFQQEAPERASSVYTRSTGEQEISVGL", "assay": "Inhibition of CCR5: [35S]GTPγS binding assays (filtration, SPA-WGA) and calcium influx assay, 10 nM RANTES, CHO-CCR5", "assay_type": "biochemical", "conditions": "for IC50: inhibition of GTPγS binding induced by 10 nM RANTES, CHO-CCR5; for inhibition against CCR5 (class symbol in IC50 column): class by inhibition at 30 nM or 300 nM", "protocol": "CCR5 belongs to G-Protein-Coupled Receptor (GPCR) family. The developing technology of GPCR-based drugs have been well-developed, among them, the experimental techniques such as ligand-receptor binding assay, GTPγS binding assay and Ca^2+ flux assay have been widely used in drug-screening related to chemokine receptors. The inhibitory activities of the compounds according to the present invention against CCR5 are measured by three methods, i.e., [^35S]GTPγS filter binding assay, SPA-WGA-based [^35S]GTPγS binding assay and calcium influx assay. At the same time, the antiviral activities in cell of the compounds according to the present invention are evaluated by using two kinds HIV-1 subtypes: H4DA5 cell model and PBMC system virus replication model.\nA. [^35S]GTPγS Binding Assay\nAfter binding with an agonist, CCR5 experiences a conformation change such that CCR5 interacts with G protein so as to active the G protein. G protein is a tripolymer composed of α-subunit and βγ-subunit. Since the ability of α-subunit binding to GTP depends on the interaction of CCR5 with the agonist, the ability of an agonist for activating CCR5 can be reflected by determining the amount of GTP binding to α-subunit. In a GTPγS binding assay, a ^35S-labeled GTP analogue GTPγS, which can bind with an activated α-subunit without being hydrolyzed, is used to replace GTP in order for eliminating the defect that the amount of GTP binding to G protein can not exactly reflect the activation of CCR5 due to the hydrolysis of GTO by GTPase and for convenience of detection. So, α-subunit binds with GDP when CCR5 is not activated, and after the activation of CCR5, α-subunit binds with GTPγS such that GTPγS irreversible binds to α-subunit. Therefore, the amount of [^35S]-GTPγS binding to α-subunit could reflect the level of CCR5 activated by an agonist. The ability of the agonist for activating CCR5 will decrease when an antagonist is added.\nSuch experiment has been referred to as GTPγS filtration assay in which [^35S]-GTPγS bound with the free G protein could be separated by membrane filtration.\nAlternatively, SPA (Scintillation Proximity Assay) technique can be used to detect the [^35S]-GTPγS bound to G protein, which is called SPA-WGA-based [35S]GTPγS binding assay. The principle of SPA technique is as follows. Sub-atomic particles released during the decay of radioactive atoms, for example β-ray (electron), can excite microspheres at a sufficiently close distance to emit light so as to be detected by a Scintillation Counter. In an aqueous solution, most of the energy of these rays is absorbed by the solvent, and the traveling distance of these rays is limited.\nThe activation of G protein by CCR5 is determined by the following experiments.\nCHO (Chinese hamster ovary cell) permanent cell line expressing CCR5 (CHO-CCR5) (a cell line constructed by Shanghai Targetdrug Ltd.) was lysed with a lysis buffer (5 mM Tris-HCl, pH 7.5, 5 mM EDTA and 5 mM EGTA) and then centrifugated at 15,000×g for 10 min to obtain cell membrane. After the cell membrane was resuspended in a reaction buffer (5 mM Tris-HCl, pH 7.5, 5 mM MgCl2, 1 mM EGTA, 100 mM NaCl), the protein concentration was determined using Bioford Protein Assay Kit manufactured by Bio-Rad Laboratories Inc. Subsequently, GTPγS binding assay was performed in the reaction buffer, wherein the reaction system was 100 μL containing 10 μg membrane protein, 40 μM GDP and 0.5 nM [^35S]-GTPγS (1200 Ci/mmol). After the compound to be tested (the compound was first dissolved in DMSO and then diluted in gradient with the reaction buffer according to the specific situation, wherein the final concentration of DMSO was 1% (v/v) in the whole reaction system) was added and shaken to mix homogeneously, the reaction tube was incubated at 30° C. for 1 hour. After the reaction finished, the tube was placed on ice, and the reaction mixture was diluted with PBS to quench the reaction and filtered under reduced pressure with a GF/C filter membrane. […]"}, "[2]": {"test_system": "HIV-1 NL(AD8) virus", "assay": "H4DA5 cell model of virus replication (β-galactosidase reporter)", "assay_type": "cell-based", "conditions": "for IC50: read-out: IC50 (nM) H4DA5 cell model; for inhibitory activity EC50 level in H4DA5 cell model: stated in words", "protocol": "2. Results of Activity Assay at Cellular Level • 2.1 H4DA5 Cell Model (The Operation was Performed Under P3 Experimental Conditions) • (1) H4DA5 cells: Hela cells expressing human CD4, CCR5 receptor and reporting gene Ltr-lacZ; • (2) Appropriate amounts of H4DA5 cells were plated in 96-well plate and cultured overnight; • (3) The compound to be tested and HIV-1 NL(AD8) virus were added; • (4) Incubation for 3 days (in cell incubator at 37° C.); • (5) Virus replication was determined using β-galactosidase test kit."}, "[3]": {"test_system": "HIV-1 Ba-L virus", "assay": "PBMC system of virus replication model (p24 antigen)", "assay_type": "cell-based", "conditions": "for IC50: read-out: IC50 (nM) PBMC system of virus replication model", "protocol": "2.2 PBMC System of Virus Replication Model (The Operation was Performed Under P3 Experimental Conditions) • (1) PBMC cells were separated from the blood from two people (using Ficoll gradient separation method); • (2) the PBMC cells were stimulated using PHA and incubated for 3 days in a cell incubator at 37° C. at a density of 2×10^6 cells/ml. • (3) PBMC cells were resuspended in a RF-10 medium (RF-10/IL2) containing 100 U/mL IL-2 (30 uL RF-10/IL2 medium containing 4 times of the final concentration of the compound to be tested and 40 uL RF-10/IL2 medium containing HIV-1 Ba-L virus (1400 pfu/well) were added in the plate (200,000 cells/50 uL/well). • (4) After incubated 24 hours, RF-10/IL2 medium containing 1 time of the final concentration of the compound to be test was added in each well. After infected for 4 days, 100 ul fresh RF-10/IL2 medium containing the compound to be tested at the final concentration to replace the original medium. After incubated for 2 days, the supernatant of each well was collected, and the content of p24 was determined. • (5) The content of P24 antigen in the supernatant of each well was measured by Vironostik p24 test kit to detect the virus replication."}, "[4]": {"conditions": "Human immunodeficiency virus 1, 72 h"}}, "note": "Like-named read-outs stand apart in the source and are kept apart here.", "data": [{"compound": "CC(=O)N1CCC(C(=O)N(CCCN2[C@@H]3CC[C@H]2C[C@H](NC(=O)OCc2ccccc2)C3)c2ccc(C)c(Cl)c2)CC1", "note": "[Compound 8, 1-acetyl-N-(3-chloro-4-methylphenyl)-N-(3-(3-exo-benzyloxymethanamido-8-azabicyclo[3.2.1]oct-8-yl)propyl)-4-piperidinylcarboxamide]", "values": [{"measurement": "IC50", "setting": "[1]", "value": 18.3, "unit": "nM"}, {"measurement": "IC50", "setting": "[2]; [4]", "value": 220, "unit": "nM"}, {"measurement": "inhibitory activity EC50 level in H4DA5 cell model", "setting": "[2]", "value": 100, "unit": "nM level"}]}, {"compound": "CC(=O)N1CCC(C(=O)N(CCCN2[C@@H]3CC[C@H]2C[C@H](NS(=O)(=O)c2ccc(C)cc2)C3)c2ccc(C)c(Cl)c2)CC1", "note": "[Compound 9b, 1-acetyl-N-(3-chloro-4-methylphenyl)-N-(3-(3-exo-p-tolylsulfonamido-8-azabicyclo[3.2.1]oct-8-yl)propyl)-4-piperidinylcarboxamide]", "values": [{"measurement": "IC50", "setting": "[3]; Human immunodeficiency virus 1, BAL, PBMC", "value": 0.42, "unit": "nM"}, {"measurement": "inhibitory activity EC50 level in PBMC system of virus replication model", "setting": "[3]; stated in words", "value": "nM level"}, {"measurement": "IC50", "setting": "[1]", "value": 6, "unit": "nM"}, {"measurement": "IC50", "setting": "[2]; [4]", "value": 1, "unit": "nM"}, {"measurement": "inhibitory activity EC50 level in H4DA5 cell model", "setting": "[2]", "value": "nM level"}]}, {"compound": "Cc1ccc(S(=O)(=O)N[C@@H]2C[C@H]3CC[C@@H](C2)N3CCCN(C(=O)C2CCN(S(C)(=O)=O)CC2)c2ccc(C)c(Cl)c2)cc1", "note": "[Compound 15b, N-(3-chloro-4-methylphenyl)-N-(3-(3-exo-(4-tolylsulfonamido)-8-azabicyclo[3.2.1]oct-8-yl)propyl)-1-(methylsulfonyl)-4-piperidinylcarboxamide]", "values": [{"measurement": "IC50", "setting": "[1]", "value": 2.06, "unit": "nM"}]}, {"compound": "Cc1ccc(S(=O)(=O)NC2CC3CCC(C2)N3CCCN(C(=O)OCc2ccccc2)c2ccc(C)c(Cl)c2)cc1", "note": "(stereo not drawn) [Compound 15c, 3-chloro-4-methylphenyl(3-(3-exo-(4-toluenesulfonamido)-8-azabicyclo[3.2.1]oct-8-yl)propyl)carbamic acid benzyl ester]", "values": [{"measurement": "inhibition against CCR5 (class symbol in IC50 column)", "setting": "[1]", "value": "++ (the compound at 300 nM has an inhibition against CCR5 of more thant 50% at 300 nM)"}]}, {"compound": "Cc1ccc(S(=O)(=O)NC2CC3CCC(C2)N3CCCN(C(=O)Nc2ccccc2)c2ccc(C)c(Cl)c2)cc1", "note": "(centres unmarked) [Compound 15d]", "values": [{"measurement": "inhibition against CCR5 (class symbol in IC50 column)", "setting": "[1]", "value": "++ (the compound at 300 nM has an inhibition against CCR5 of more thant 50% at 300 nM)"}]}, {"compound": "Cc1ccc(S(=O)(=O)NC2CC3CCC(C2)N3CCCN(c2ccc(C)c(Cl)c2)S(=O)(=O)c2ccc(C)cc2)cc1", "note": "(stereo not drawn) [Compound 15e, N-(3-chloro-4-methylphenyl)-4-methyl-N-(3-(3-exo-(4-tolylsulfonamido)-8-azabicyclo[3.2.1]oct-8-yl)propyl)phenylsulfonamide]", "values": [{"measurement": "inhibition against CCR5 (class symbol in IC50 column)", "setting": "[1]", "value": "++ (the compound at 300 nM has an inhibition against CCR5 of more thant 50% at 300 nM)"}]}, {"compound": "Maraviroc [reference compound]", "values": [{"measurement": "IC50", "setting": "[3]; PHA-stimulated PBMC, HIV-1 Ba-L, p24", "value": 0.35, "unit": "nM"}, {"measurement": "IC50", "setting": "[2]; Hela cells expressing human CD4, CCR5 and Ltr-lacZ, HIV-1 NL(AD8), 3 days", "value": 1.5, "unit": "nM"}]}]}
